{"source": "patent US8557989B2", "about": "“Electrochemical affinity biosensor system and methods” (priority 2003, dated 2013)", "origin": "cited, not measured here", "molecular_target": "glucose oxidase (Aspergillus niger, UniProt P13006)", "sequence (P13006 17-605)": "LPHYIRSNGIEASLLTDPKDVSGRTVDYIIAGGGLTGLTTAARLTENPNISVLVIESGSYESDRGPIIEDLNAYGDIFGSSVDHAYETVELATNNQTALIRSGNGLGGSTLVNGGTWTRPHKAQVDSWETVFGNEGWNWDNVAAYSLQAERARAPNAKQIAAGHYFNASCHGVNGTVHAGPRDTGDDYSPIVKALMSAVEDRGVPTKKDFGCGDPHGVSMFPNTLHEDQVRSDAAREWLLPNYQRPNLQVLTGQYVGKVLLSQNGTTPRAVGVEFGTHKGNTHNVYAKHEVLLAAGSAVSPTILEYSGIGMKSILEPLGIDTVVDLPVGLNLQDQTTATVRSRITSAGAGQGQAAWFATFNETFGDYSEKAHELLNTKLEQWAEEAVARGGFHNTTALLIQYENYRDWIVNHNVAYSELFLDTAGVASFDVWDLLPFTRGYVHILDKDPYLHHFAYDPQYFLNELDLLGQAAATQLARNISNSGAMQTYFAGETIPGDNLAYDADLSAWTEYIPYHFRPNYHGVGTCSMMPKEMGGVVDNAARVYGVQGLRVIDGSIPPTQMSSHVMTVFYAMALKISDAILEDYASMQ", "conditions": "with glucose oxidase", "data": [{"substance": "bis(2,2′-bipyridyl) imidazole chloro osmium (III) dichloride [osmium free mediator]", "values": [{"measurement": "mediation kinetics, times faster than ferricyanide", "result": "about 500 times"}]}]}
